Assay results published in publication PMC8490515, “Neuromedin B receptor stimulation of Cav3.2 T-type Ca^2+ channels in primary sensory neurons mediates peripheral pain hypersensitivity” (Theranostics, 2021).

Legend:
[1] = system: sustained delayed rectifier K^+ channel (IDR); test: Sustained delayed rectifier K+ currents (IDR) in TG neurons; type: cell-based, mouse; conditions: 100 nM
Procedure: (§1) All the procedures performed in this study were carried out in accordance with NIH guidelines and were approved by the Institutional Animal Care and Use Committee of Soochow University. TG neurons were dissociated as previously described, [23]. Briefly, TGs were harvested from 8- to 10-week-old ICR mice of either sex, cut into small pieces and treated with 2 mg/mL collagenase D (Roche) for 20 min followed by 1.5 mg/mL trypsin (Sigma) at 37 °C for 15 min. Cells were dissociated via gentle trituration with fire-polished sterilized Pasteur pipettes and centrifuged through a 15% BSA gradient to remove debris and nonneuronal cells. TG neurons were resuspended in neurobasal A (Thermo Fisher) supplemented with B27 (Thermo Fisher) and transferred onto Matrigel-coated coverslips. Patch clamp recordings were conducted 2 to 6 h after plating. In shRNA-treated knockdown experiments, TG cells were replated onto coverslips 48 h after infection.
(§2) Standard whole-cell recordings were made at room temperature (22-23 °C) as described previously, [25]. Recording electrodes were pulled from borosilicate glass microcapillary tubes (Sutter Instruments) and had resistances from 3 to 5 MΩ when filled with internal solution. Recordings were obtained using a MultiClamp 700B amplifier (Axon Instruments). […]

[2] = system: small TG neurons; test: TG neuronal excitability (action potential firing, rheobase, threshold); type: cell-based, mouse
Procedure: as §1
(§3) Standard whole-cell recordings were made at room temperature (22-23 °C) as described previously, [25]. Recording electrodes were pulled from borosilicate glass microcapillary tubes (Sutter Instruments) and had resistances from 3 to 5 MΩ when filled with internal solution. Recordings were obtained using a MultiClamp 700B amplifier (Axon Instruments). Data were digitized on a personal computer using a Digidata 1440 interface under the control of the pClamp10.2 acquisition package (Molecular Devices). Data were acquired at 20 kHz with a low-pass Bessel filter at 2-5 kHz. Series resistance was compensated to 80%. The internal solution used for T-type channel current recordings contained 110 mM CsCl, 4 mM Mg-ATP, 0.3 mM Na2-GTP, 25 mM HEPES, and 10 mM EGTA, adjusted to pH 7.4 with CsOH; 295 mOsm. The external solution used for T-type channel current recordings contained 5 mM BaCl2, 140 mM TEA-Cl, 10 mM HEPES, 0.5 mM MgCl2, 5 mM CsCl, and 5.5 mM glucose, adjusted to pH 7.35 with TEA-OH; 305 mOsm. In experiments for Kv current recordings, the extracellular solution contained 140 mM choline-Cl, 1 mM MgCl2, 0.03 mM CaCl2, 5 mM KCl, 10 mM HEPES, and 10 mM glucose, adjusted to pH 7.4 with KOH; 310 mOsm. The intracellular pipette solution contained 140 mM KCl, 1 mM MgCl2, 0.5 mM CaCl2, 3 mM Mg-ATP, 0.3 mM Na2-GTP, 10 mM HEPES, and 5 mM EGTA, adjusted to pH 7.4 with KOH; 295 mOsm. The two kinetically distinct Kv currents in small TG neurons were separated by the two-step voltage protocol as previously described, [26]. The external solution for Nav current clamp recordings contained 2 mM KCl, 2 mM MgCl2, 25 mM HEPES, 2 mM CaCl2, 128 mM NaCl, and 30 mM glucose, adjusted to pH 7.4 with NaOH; 305 mOsm. The internal solution contained 10 mM NaCl, 110 mM KCl, 4 mM Mg-ATP, 0.3 mM Na2-GTP, 25 mM HEPES, and 2 mM EGTA, adjusted to pH 7.3 with KOH; 295 mOsm. Nmb was applied to a patched cell by an air-pressure microinjector (Pneumatic PicoPump, model PV830, WPI).
We next determined the role of the Nmb-induced T-type channel response in regulating TG neuronal excitability. […] Furthermore, application of Nmb (100 nM) to TG neurons decreased the peak amplitude of the transient outward K^+ channel currents (A-type currents or IA) (decrease of 22.3 ± 3.9%; Figure 6C), while the sustained delayed rectifier K^+ channel currents (IDR) remained unaffected (decrease of 1.9 ± 1.6%; Figure 6C). […] To further test this hypothesis, a shorter (1 ms) current injection was applied to avoid contaminating the action potential waveform with the stimulus. Neurons were manually hyperpolarized to membrane potentials of -75 mV to maximize the number of T-type channels available for activation. With increasingly stronger current injections (+200 pA), the threshold current necessary to evoke an overshooting AP was determined for each neuron in the presence or absence of Nmb.

[3] = system: high-voltage activated (HVA) Ca^2+ channels, L-type; test: HVA / L-type Ca2+ channel currents in TG neurons; type: cell-based, mouse
Procedure: as §1, §2

[4] = system: Cav3.1 (α1G); test: Cav3.1 channel currents in HEK293 cells coexpressing NmbR; type: cell-based, human; conditions: 100 nM Nmb; -110 mV to -30 mV; n = 10
[5] = system: Cav3.2 (α1H); test: Cav3.2 channel currents in HEK293 cells coexpressing NmbR; type: cell-based, human
Procedure: as §3, with “mOsm.” for “mOsm. The two kinetically distinct Kv currents in small TG neurons were separated by the two-step voltage protocol as previously described, [26]. The external solution for Nav current clamp recordings contained 2 mM KCl, 2 mM MgCl2, 25 mM HEPES, 2 mM CaCl2, 128 mM NaCl, and 30 mM glucose, adjusted to pH 7.4 with NaOH; 305 mOsm. The internal solution contained 10 mM NaCl, 110 mM KCl, 4 mM Mg-ATP, 0.3 mM Na2-GTP, 25 mM HEPES, and 2 mM EGTA, adjusted to pH 7.3 with KOH; 295 mOsm. Nmb was applied to a patched cell by an air-pressure microinjector (Pneumatic PicoPump, model PV830, WPI).”

[6] = system: T-type channels in small TG neurons; test: Whole-cell patch clamp of T-type channel currents (IT) in small TG neurons; type: cell-based, mouse

Neuromedin B [Nmb]
decrease of IDR [1]: 1.9 ± 1.6%
threshold current with Nmb ([2]; 100 nM (control +0.98 nA)): +0.79 nA
increase of action potential firing rate ([2]; 100 nM, 5 mM 4-AP and 5 μM nifedipine, 1-s current injection, n = 17): 43.7 ± 3.7%
cells in which the threshold was significantly lowered ([2]; 100 nM, 1 ms current injection, -75 mV): 15 of 19
resting membrane potential ([2]; 100 nM, n = 17): not significantly changed
rheobase (vs nontreated) ([2]; 100 nM, n = 17): significantly lower
decrease of L-type channel currents ([3]; 100 nM): 19.6 ± 2.2%
decrease of remaining HVA Ca2+ channel currents ([3]; 100 nM Nmb with 5 μM nifedipine): 1.3 ± 0.6%
increase of Cav3.1 channel currents [4]: 0.7 ± 1.2%
increase of Cav3.2 channel currents ([5]; 100 nM Nmb, -110 mV to -30 mV, n = 9): 36.2 ± 3.1%
EC50 ([5]; sigmoidal dose-response fit, read-out: EC50 for increase of Cav3.2 channel currents): 47.6 nM
reversal of IT increase when Nmb removed by washing ([6]; 100 nM, washout): partially reversed
increase of peak amplitude of IT by Nmb ([6]; 100 nM, mean ± SEM, n = 9): 34.2 ± 1.9%
current-voltage relationship curve of IT ([6]; 100 nM, n = 8): downward shifted the current-voltage relationship curve
depolarizing shift in steady-state inactivation ([6]; 100 nM, n = 9): ~ 7.3 mV
shift in activation properties ([6]; 100 nM, n = 9): no significant shifts in activation properties
EC50 ([6]; sigmoidal Hill equation fit, small TG neurons, read-out: EC50 for IT increase): 45.3 nM
Vhalf of activation ([6]; with 100 nM Nmb (control -47.1 ± 1.9 mV), n = 9): -46.3 ± 2.2 mV
Vhalf of steady-state inactivation ([6]; with 100 nM Nmb (control -80.1 ± 2.5 mV), n = 9): -72.8 ± 1.3 mV

CCCCCCOC(=O)[C@]1(O)C[C@@H]2O[C@@]1(C)n1c3ccccc3c3c4c(c5c6ccccc6n2c5c31)C(=O)NC4 [KT-5720]
effect on Nmb-mediated increase in AP firing rate / hyperexcitability ([2]; pretreatment KT-5720 1 µM (n = 12) or NiCl2 50 μM (n = 11), 100 nM Nmb): blocked
Nmb-induced increase of Cav3.2 currents after KT-5720 ([5]; pretreatment 1 µM KT-5720, 100 nM Nmb, n = 9): 1.9 ± 4.2%
effect on forskolin-induced IT increase ([6]; 1 µM KT-5720 pretreatment, 10 μM forskolin, n = 6): abrogated
Nmb-induced increase in IT after KT-5720 ([6]; pretreatment 1 µM KT-5720, 100 nM Nmb, n = 7): 2.8 ± 2.9%
